The text below walks through data of patent publication US20070191449A1, “Use of Benzo-Heteroaryl Sulfamide Derivatives for the Treatment of Depression” (priority 2006, published 2007).

Series [1] is described as follows: Drug concentration in terminal plasma and brain of RSBM rats (LC-MS-MS). The series is classed as in vivo, Male Sprague Dawley rats. The settings on record: submissive rats treated with increasing doses (6, 30, 60 mg/kg p.o. BID). The source says: Rats were housed four per cage. Access to food was restricted to one hour per day after testing on Monday through Thursday. After testing on Friday, rats had free access to food until being fasted again on Sunday. At no time were the rats deprived of water. The food deprivation periods used had little effect on weight gain as the average weight of rats was about 300 g at the end of the study. At the conclusion of experiment rats were sacrificed by decapitation, the trunk blood and brains were collected for in vitro experiments and drug concentration measurements.
Terminal blood samples (0.5-1.0 mL) were collected post experiment into heparinized tubes. Blood samples were centrifuged for cell removal, and 200 μL of plasma supernatant was then transferred to a clean vial, placed on dry ice, and subsequently stored in a −80° C. freezer prior to analysis. Two hundred microliters of acetonitrile containing internal standard was added to 100 μL of plasma or brain tissue to precipitate proteins and/or tissue residues. Samples were centrifuged and supernatant removed for analysis by liquid chromatography-triple quadruple mass spectrometry (LC-MS-MS). […] Calibration standards were prepared in the range of 0.01 to 10 μM for quantitation. […]

Series [2] deals with Male NMRI mice. The series is described as follows: Mouse Tail Suspension In Vivo Assay. The settings on record: for Immobilization Time (sec); (mean ± SEM): single dose 30 min prior to tail suspension. The method, then:
The tail suspension test (TST) is an acute test of anti-depressant activity.
Male NMRI mice (25-30 g; n=13-15 mice per dose) were given a single dose of vehicle (aqueous solution of 1 equivalent tartaric acid+0.45% NaCl+10% cyclodextrin, i.p.), imipramine (20 mg/kg, i.p. in an aqueous solution of 0.9% NaCl) or Compound #1 (at 5, 10, 20, 40 or 80 mg/kg, i.p.) 30 min prior to tail suspension. In this test, the mice were submitted to an unpleasant and inescapable situation (hanging by the tail) for 6 min. Once suspended, motor activity diminished rapidly and the mice became immobile. A compound was considered active as an antidepressant in this model, when there was a reduction in immobility time. Viewpoint video-tracking software was utilized to record immobility time.
Therefore, a compound which is not active in this model may nonetheless be active as an antidepressant.

Series [3] has as its system submissive rats. As to the kind of experiment: Dominant-Submissive Competition: Reduction of Submissive Behavior Model (RSBM). The class given is in vivo, Male Sprague Dawley rats. How it is done: Dominance and submissiveness, defined in a competition test and measured as the relative success of two food-restricted rats to gain access to a feeder, form a behavioral paradigm—the Dominant Submissive Relationship (DSR). This paradigm results in two models which are predictive of ability of test compounds (drugs) to treat mood disorders.
Test compounds are evaluated for either their ability to inhibit the dominant behavior of rats taking food at the expense of an opponent (reduction of dominant behavior model or RDBM) and thus their potential as treatments for mania; or for their ability to increase the competitive behavior of submissive rats losing such encounters (reduction of submissive behavior model or RSBM) and thus their potential as treatments for depression; (Malatynska, E., and Knapp, R. J., Neuroscience and Biobehavioral Review, 29 (2005) 715-737). […]
The basic testing apparatus consisted of two chambers connected with a tunnel only large enough to allow one rat to pass through at a time. […] During the five-minute daily sessions, time spent in the feeder zone by each rat was recorded by the video tracking software and saved into a text file.
The test began with a random assignment of rats into pairs. […] The time spent in the feeder zone by each animal was recorded. […]

Series [4] relates to Male C57BL/6 mice. The series is described as follows: Mouse Forced Swim Test. The series is classed as in vivo. Particulars: not statistically significant (p=0.19). How it is done: The forced swim test (FST) is an acute test of anti-depressant activity. Note that in this test, antidepressant-like compounds such as tricyclics, MAO inhibitors, SSRIs and others show activity, although the level of measured activity can vary with strain differences.
Male C57BL/6 mice (˜25 g; n=10 mice per dose) were given a single dose of vehicle (an aqueous solution of 1 equivalent tartaric acid+0.45% NaCl+10% cyclodextrin, s.c.), Compound #1 (at 5, 10, 20, 40 or 80 mg/kg, s.c.) or imipramine (10 mg/kg, i.p. in an aqueous solution of 0.9% NaCl) 30 min prior to entrance into the swim chamber. In this test, mice were placed in a water-filled cylinder in which they were unable to escape or touch the bottom of the chamber for 6 min. Once immersed in water, motor activity diminished rapidly and the mice became immobile. Viewpoint video-tracking software was utilized to record immobility time. Other common behaviors such as swimming and climbing activity were not measured in this study.

For `NS(=O)(=O)NCc1csc2ccccc12` [Compound #1, N-(benzorblthien-3-vimethyl)-sulfamide], in series [1], the “exposure in plasma and brain” value is “linear increase in exposure both in plasma and brain”. The “Immobilization Time (sec); (mean ± SEM)” value was 66.1 ± 10.1 s in series [2] (5 mpk i.p.); 96.4 ± 12.4 s in series [2] (10 mpk i.p.); 110.1 ± 15.8 s in series [2] (20 mpk i.p.); 100.5 ± 13.9 s in series [2] (40 mpk i.p.); 160 s in series [2] (80 mpk i.p., increase resembled sedation (p=0.003)); 160.4 ± 10.7 s in series [2] (80 mpk i.p., increase resembled sedation (p=0.003), listed as #1). Moreover, in series [3] (after 17 days of treatment with 60 mg/kg, p<0.01), the “statistical significance of the reduction of submissive behavior” value is reported as “statistically significant”. Moreover, the “reduction of submissive behavior” value in series [3] (submissive rats treated p.o. BID at 6, 30 or 60 mg/kg) is given as “reduced submissive behavior in a dose-dependent manner”.
`CN(C)CCCN1c2ccccc2CCc2ccccc21` [Imipramine, reference compound]: the “decrease in immobility time” value in series [4] (10 mg/kg i.p. versus vehicle (152 sec)) amounted to 20%; in series [2] (20 mg/kg i.p. versus vehicle (71 sec), p=0.0004) it was 75%. The immobility time in series [4] (10 mg/kg i.p., vehicle=152 sec) amounted to 122 s. Moreover, the “Immobilization Time (sec); (mean ± SEM)” value in series [2] (20 mpk i.p.) came out at 18.0 ± 5.8 s; in series [2] (20 mpk i.p., listed as imipramine) it was 18 s.
